Where a name gives a salt, the structure may show the parent alone. Read-outs that look alike come from different tables or passages of the source.

What all share (type): cell-based
In one assay the target is T1, αvβ8 (Homo sapiens, UniProt P06756+P26012).
T1 construct: expressed in transfected cells; host or cells: K562
Kind of assay: Cell adhesion assay, K562-αvβ8 (LAP-b1). The settings on record: read-out: αvβ8 pIC50 (converted).

The next assay deals with T2, αvβ1 (Homo sapiens, UniProt P05556+P06756).
T2 construct: host or cells: A549
T2 sequence (P06756 31-889 limits assumed): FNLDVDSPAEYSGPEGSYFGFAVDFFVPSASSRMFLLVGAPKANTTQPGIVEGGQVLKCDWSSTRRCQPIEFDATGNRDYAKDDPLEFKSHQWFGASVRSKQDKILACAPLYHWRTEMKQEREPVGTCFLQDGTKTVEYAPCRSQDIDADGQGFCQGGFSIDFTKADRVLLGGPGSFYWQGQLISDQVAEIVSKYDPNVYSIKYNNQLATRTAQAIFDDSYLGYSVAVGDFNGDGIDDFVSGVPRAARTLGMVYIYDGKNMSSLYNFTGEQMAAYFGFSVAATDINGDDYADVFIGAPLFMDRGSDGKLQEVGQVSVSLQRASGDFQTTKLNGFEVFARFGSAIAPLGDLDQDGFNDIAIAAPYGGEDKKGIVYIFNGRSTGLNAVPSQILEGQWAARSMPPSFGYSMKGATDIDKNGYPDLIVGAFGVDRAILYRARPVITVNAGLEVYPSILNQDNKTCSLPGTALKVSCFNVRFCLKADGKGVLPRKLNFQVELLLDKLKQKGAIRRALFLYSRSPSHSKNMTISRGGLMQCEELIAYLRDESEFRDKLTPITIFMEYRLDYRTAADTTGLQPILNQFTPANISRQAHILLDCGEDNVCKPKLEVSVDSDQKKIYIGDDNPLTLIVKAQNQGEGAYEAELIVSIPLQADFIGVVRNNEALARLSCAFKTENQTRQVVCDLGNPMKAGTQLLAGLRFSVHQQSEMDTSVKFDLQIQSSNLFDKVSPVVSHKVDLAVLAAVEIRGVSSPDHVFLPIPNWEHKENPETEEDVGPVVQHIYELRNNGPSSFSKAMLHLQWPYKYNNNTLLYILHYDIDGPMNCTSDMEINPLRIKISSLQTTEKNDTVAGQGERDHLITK
T2 sequence (P06756 891-1048 partner limits assumed): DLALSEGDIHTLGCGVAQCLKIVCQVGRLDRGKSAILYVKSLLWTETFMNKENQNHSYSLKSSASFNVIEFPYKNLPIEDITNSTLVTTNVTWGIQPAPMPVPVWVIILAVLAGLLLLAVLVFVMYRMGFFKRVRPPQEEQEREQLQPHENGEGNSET
T2 sequence (P05556 21-798): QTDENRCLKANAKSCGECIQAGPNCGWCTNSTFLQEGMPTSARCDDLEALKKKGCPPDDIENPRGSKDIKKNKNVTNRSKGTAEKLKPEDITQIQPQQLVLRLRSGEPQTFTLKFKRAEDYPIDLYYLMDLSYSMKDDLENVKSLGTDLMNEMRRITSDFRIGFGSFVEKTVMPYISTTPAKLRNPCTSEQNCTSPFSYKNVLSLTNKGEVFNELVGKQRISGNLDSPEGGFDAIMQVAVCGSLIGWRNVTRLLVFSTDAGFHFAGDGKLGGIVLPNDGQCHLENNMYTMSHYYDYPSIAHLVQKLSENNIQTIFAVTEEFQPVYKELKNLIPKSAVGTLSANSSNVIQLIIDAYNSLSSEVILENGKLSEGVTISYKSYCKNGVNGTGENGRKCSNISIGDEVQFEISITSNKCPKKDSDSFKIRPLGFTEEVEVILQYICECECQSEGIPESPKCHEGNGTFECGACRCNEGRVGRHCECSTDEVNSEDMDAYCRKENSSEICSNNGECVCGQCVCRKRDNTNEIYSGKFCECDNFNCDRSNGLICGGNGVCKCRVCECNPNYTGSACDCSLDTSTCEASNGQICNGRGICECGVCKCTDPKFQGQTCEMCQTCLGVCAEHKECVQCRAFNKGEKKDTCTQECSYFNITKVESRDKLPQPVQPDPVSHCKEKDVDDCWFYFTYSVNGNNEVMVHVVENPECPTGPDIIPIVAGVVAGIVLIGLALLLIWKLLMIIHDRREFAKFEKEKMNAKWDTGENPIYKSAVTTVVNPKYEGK
As to the kind of experiment: Cell adhesion assay, A549-αvβ1 (LAP-b1).

In another assay the target is T3, αvβ6 (Homo sapiens, UniProt P06756+P18564).
T3 construct: expressed in transfected cells; host or cells: K562
T3 sequence (P06756 31-889 limits assumed): as the sequence (P06756 31-889 limits assumed) above
T3 sequence (P06756 891-1048 partner limits assumed): as the sequence (P06756 891-1048 partner limits assumed) above
T3 sequence (P18564 22-788): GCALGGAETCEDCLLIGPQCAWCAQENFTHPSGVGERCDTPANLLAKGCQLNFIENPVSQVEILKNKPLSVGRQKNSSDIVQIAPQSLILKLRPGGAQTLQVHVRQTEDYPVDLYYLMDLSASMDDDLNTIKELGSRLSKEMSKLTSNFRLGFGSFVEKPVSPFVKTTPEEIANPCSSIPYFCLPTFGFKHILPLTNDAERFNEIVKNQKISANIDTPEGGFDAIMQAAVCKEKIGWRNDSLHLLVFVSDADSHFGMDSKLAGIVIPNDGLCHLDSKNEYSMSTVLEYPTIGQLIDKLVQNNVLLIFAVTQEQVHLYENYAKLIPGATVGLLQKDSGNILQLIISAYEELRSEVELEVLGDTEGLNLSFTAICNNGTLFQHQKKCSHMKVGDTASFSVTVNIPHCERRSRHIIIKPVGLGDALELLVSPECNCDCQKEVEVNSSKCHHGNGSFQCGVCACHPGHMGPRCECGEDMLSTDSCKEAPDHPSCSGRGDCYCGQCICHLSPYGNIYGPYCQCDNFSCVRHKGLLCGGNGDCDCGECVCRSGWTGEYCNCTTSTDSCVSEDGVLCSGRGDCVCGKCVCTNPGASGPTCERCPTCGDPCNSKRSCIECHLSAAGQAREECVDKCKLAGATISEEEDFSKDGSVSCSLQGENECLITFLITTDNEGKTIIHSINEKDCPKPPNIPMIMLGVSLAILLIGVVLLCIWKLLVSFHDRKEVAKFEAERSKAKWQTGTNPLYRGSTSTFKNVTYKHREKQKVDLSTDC
Kind of assay: Cell adhesion assay, K562-αvβ6 (LAP-b1). The settings on record: read-out: αvβ6 pIC50 (converted).

In the next assay the target is T4, αvβ3 (Homo sapiens, UniProt P05106+P06756).
T4 construct: expressed in transfected cells; host or cells: K562
T4 sequence (P06756 31-889 limits assumed): as the sequence (P06756 31-889 limits assumed) above
T4 sequence (P06756 891-1048 partner limits assumed): as the sequence (P06756 891-1048 partner limits assumed) above
T4 sequence (P05106 27-788): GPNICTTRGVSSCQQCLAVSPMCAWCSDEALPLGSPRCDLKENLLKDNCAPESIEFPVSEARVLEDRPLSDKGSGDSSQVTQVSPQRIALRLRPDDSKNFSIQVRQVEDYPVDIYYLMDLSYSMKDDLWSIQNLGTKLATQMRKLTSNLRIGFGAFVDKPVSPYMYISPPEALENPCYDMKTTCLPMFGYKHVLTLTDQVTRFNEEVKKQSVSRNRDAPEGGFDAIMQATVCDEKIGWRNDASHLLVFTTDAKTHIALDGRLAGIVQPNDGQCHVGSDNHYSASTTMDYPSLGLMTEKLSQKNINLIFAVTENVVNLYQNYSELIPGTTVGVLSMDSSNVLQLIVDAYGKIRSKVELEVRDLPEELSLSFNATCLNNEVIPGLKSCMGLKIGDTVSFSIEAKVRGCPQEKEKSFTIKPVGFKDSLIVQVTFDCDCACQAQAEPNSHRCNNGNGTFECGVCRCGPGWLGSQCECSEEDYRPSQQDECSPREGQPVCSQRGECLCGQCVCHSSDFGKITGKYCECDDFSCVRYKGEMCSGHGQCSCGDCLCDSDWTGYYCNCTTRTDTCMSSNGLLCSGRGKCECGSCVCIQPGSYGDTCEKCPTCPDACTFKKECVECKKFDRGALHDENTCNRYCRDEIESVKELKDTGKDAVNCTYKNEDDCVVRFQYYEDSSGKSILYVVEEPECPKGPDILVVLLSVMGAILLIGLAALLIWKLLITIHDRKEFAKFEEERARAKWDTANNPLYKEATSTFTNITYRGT
Kind of assay: Cell adhesion assay, K562-αvβ3 (LAP-b1). The settings on record: read-out: αvβ3 pIC50 (converted).

A further assay addresses T5, αvβ5 (Homo sapiens, UniProt P06756+P18084).
T5 construct: expressed in transfected cells; host or cells: K562
As to the kind of experiment: Cell adhesion assay, K562-αvβ5 (Vitronectin). The settings on record: read-out: αvβ5 pIC50 (converted).

The mark [1] stands for this setting: cell adhesion, A549-αvβ1 cells, ligand LAP-b1, 2 mM MgCl2, mean pIC50.

T1 sequence (P06756 31-889 limits assumed): as the sequence (P06756 31-889 limits assumed) above
T1 sequence (P06756 891-1048 partner limits assumed): as the sequence (P06756 891-1048 partner limits assumed) above
T1 sequence (P26012 43-769): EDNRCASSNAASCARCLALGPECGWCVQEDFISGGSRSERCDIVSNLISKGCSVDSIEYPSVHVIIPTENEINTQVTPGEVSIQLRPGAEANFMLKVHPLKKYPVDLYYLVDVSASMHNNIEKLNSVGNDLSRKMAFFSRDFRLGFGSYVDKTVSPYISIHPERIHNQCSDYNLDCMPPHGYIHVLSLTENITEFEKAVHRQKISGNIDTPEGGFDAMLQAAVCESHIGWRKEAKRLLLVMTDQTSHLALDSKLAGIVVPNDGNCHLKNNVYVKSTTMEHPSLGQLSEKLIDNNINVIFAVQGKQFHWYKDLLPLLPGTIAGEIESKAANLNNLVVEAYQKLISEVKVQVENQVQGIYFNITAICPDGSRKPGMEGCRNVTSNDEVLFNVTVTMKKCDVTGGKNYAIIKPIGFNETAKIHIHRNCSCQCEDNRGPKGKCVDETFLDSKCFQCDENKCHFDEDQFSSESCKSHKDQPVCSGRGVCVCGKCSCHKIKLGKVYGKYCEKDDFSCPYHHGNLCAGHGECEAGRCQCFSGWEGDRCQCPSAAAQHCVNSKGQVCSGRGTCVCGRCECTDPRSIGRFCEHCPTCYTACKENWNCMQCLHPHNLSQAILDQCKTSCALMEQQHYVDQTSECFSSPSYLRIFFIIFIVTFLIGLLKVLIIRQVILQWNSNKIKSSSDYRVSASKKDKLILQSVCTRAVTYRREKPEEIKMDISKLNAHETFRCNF
Experimental for αvβ1: (§1) The following cell lines were used, with ligands in brackets: K562-αvβ3 (LAP-b1), K562-αvβ5 (Vitronectin), K562-αvβ6 (LAP-b1), K562-αvβ8 (LAP-b1), A549-αvβ1 (LAP-b1). The divalent cation used to facilitate adhesion was 2 mM MgCl2. Adhesion was quantified by cell labelling with the fluorescent dye BCECF-AM (Life Technologies), where cell suspensions at 3×10^6 cells/mL were incubated with 0.33 uL/mL of 30 mM BCECF-AM at 37° C. for 10 minutes, then 50 μL/well were dispensed into the 96-well assay plate. At the assay conclusion cells that adhered were lysed using 50 μL/well of 0.5% Triton X-100 in H2O to release fluorescence. Fluorescence intensity was detected using an Envision® plate reader (Perkin Elmer). For active antagonists in the assay, data were fitted to a 4 parameter logistic equation for IC50 determinations.
Figures quoted are Mean pIC50 values.
Experimental for αvβ3: as §1
Figures quoted are Mean pIC50 values.
Experimental for αvβ5: as §1
Figures quoted are Mean pIC50 values.
Experimental for αvβ6: as §1
Figures quoted are Mean pIC50 values.
Experimental for αvβ8: as §1
Figures quoted are Mean pIC50 values.

With `O=C(O)C[C@H](CN1CC[C@](F)(CCc2ccc3c(n2)NCCC3)C1)c1cccc(N2CCOCC2)c1` [Example 2, (S)-4-(R)-(3-Fluoro-3-(2-(5,6,7,8-tetrahydro-1,8-naphthyridin-2-yl)ethyl)pyrrolidin-1-yl)-3-(3-morpholinophenyl)butanoic acid], the IC50 on αvβ8 was 25.1 nM.
Take `O=C(O)C[C@H](CN1CC[C@@](F)(CCc2ccc3c(n2)NCCC3)C1)c1cccc(N2CCOCC2)c1` [Example 3, (S)-4-(S)-(3-Fluoro-3-(2-(5,6,7,8-tetrahydro-1,8-naphthyridin-2-yl)ethyl)pyrrolidin-1-yl)-3-morpholinophenyl)butanoic acid maleate salt]: the IC50 on αvβ1 (setting [1]) is 79.4 nM.
On the same count and under the same terms, the same measure for `O=C(O)C[C@H](CN1CC[C@@](F)(CCc2ccc3c(n2)NCCC3)C1)c1cccc(N2CCOCC2)c1` [Example 4, (S)-4-(S)-(3-Fluoro-3-(2-(5,6,7,8-tetrahydro-1,8-naphthyridin-2-yl)ethyl)pyrrolidin-1-yl)-3-(3-morpholinophenyl)butanoic acid fumarate salt]: 100 nM.
Turning to `O=C(O)C[C@H](CN1CC[C@@](F)(CCc2ccc3c(n2)NCCC3)C1)c1cc(N2CCOCC2)ccc1F` [Example 5, (S)-4-((S)-3-Fluoro-3-(2-(5,6,7,8-tetrahydro-1,8-naphthyridin-2-yl)ethyl)pyrrolidin-1-yl)-3-(2-fluoro-5-morpholinophenyl)butanoic acid], the IC50 on αvβ6 is 15.8 nM; on αvβ3, 794 nM; at αvβ5 it was 316 nM; on αvβ8, 25.1 nM; at αvβ1 (read-out: αvβ1 pIC50 (converted)), 158 nM.
Take `O=C(O)CC(CN1CC[C@](F)(CCc2ccc3c(n2)NCCC3)C1)c1cc(N2CCOCC2)ccc1F` (stereo partly drawn) [Example 9, 4-((R)-3-Fluoro-3-(2-(5,6,7,8-tetrahydro-1,8-naphthyridin-2-yl)ethyl)pyrrolidin-1-yl)-3-(2-fluoro-5-morpholinophenyl)butanoic acid]: the IC50 at αvβ6 was 25.1 nM; on αvβ3, 7940 nM; at αvβ5, 316 nM; on αvβ8, 79.4 nM.

Values taken from patent publication US10000489B2, “Compounds αvβ6 integrin antagonists” (GlaxoSmithKline Intellectual Property Development Limited, priority 2014, dated 2018).
